Test results as given in the kinase profiling compilation of Christmann-Franck et al. (2016).

Experiments:
Assay in all cases: radiometric filter-binding kinase assay, Kinase HotSpot
Details in all cases: compound 0.5 µM; ATP 10 µM
EPHA8 (human) = EPHA8 (human) (UniProt P29322)
MAPK1 (human) = MAPK1 (human) (UniProt P28482)
HIPK1 (human) = HIPK1 (human) (UniProt Q86Z02)
INSRR (human) = INSRR (human) (UniProt P14616)
NLK (human) = NLK (human) (UniProt Q9UBE8)
RPS6KA1 KD1 KD2 (human) = RPS6KA1 KD1 KD2 (human) (UniProt Q15418)
NEK9 (human) = NEK9 (human) (UniProt Q8TD19)
EPHA3 (human) = EPHA3 (human) (UniProt P29320)
DYRK3 (human) = DYRK3 (human) (UniProt O43781)
TAOK3 (human) = TAOK3 (human) (UniProt Q9H2K8)
RET (human) = RET (human) (UniProt P07949)
ULK2 (human) = ULK2 (human) (UniProt Q8IYT8)
MKNK2 (human) = MKNK2 (human) (UniProt Q9HBH9)
EPHA2 (human) = EPHA2 (human) (UniProt P29317)
INSR (human) = INSR (human) (UniProt P06213)
PAK2 (human) = PAK2 (human) (UniProt Q13177)
PTK6 (human) = PTK6 (human) (UniProt Q13882)
CDK1 CCNB1 (human) = CDK1 CCNB1 (human) (UniProt P06493+P14635)
MYLK (human) = MYLK (human) (UniProt Q15746)
FGFR2 (human) = FGFR2 (human) (UniProt P21802)
CAMK4 (human) = CAMK4 (human) (UniProt Q16566)
TTK (human) = TTK (human) (UniProt P33981)
MAPKAPK2 (human) = MAPKAPK2 (human) (UniProt P49137)
RAF1 (human) = RAF1 (human) (UniProt P04049)
NUAK2 (human) = NUAK2 (human) (UniProt Q9H093)
CSNK2A1 (human) = CSNK2A1 (human) (UniProt P68400)
MARK2 (human) = MARK2 (human) (UniProt Q7KZI7)
ADRBK2 (human) = ADRBK2 (human) (UniProt P35626)
PAK4 (human) = PAK4 (human) (UniProt O96013)
PAK1 (human) = PAK1 (human) (UniProt Q13153)
SRPK2 (human) = SRPK2 (human) (UniProt P78362)
NEK2 (human) = NEK2 (human) (UniProt P51955)
GRK4 (human) = GRK4 (human) (UniProt P32298)
SGK3 (human) = SGK3 (human) (UniProt Q96BR1)
PIM3 (human) = PIM3 (human) (UniProt Q86V86)
ROCK1 (human) = ROCK1 (human) (UniProt Q13464)
STK17A (human) = STK17A (human) (UniProt Q9UEE5)
CAMKK1 (human) = CAMKK1 (human) (UniProt Q8N5S9)
PRKCG (human) = PRKCG (human) (UniProt P05129)
MERTK (human) = MERTK (human) (UniProt Q12866)
CAMK2A (human) = CAMK2A (human) (UniProt Q9UQM7)
MYLK2 (human) = MYLK2 (human) (UniProt Q9H1R3)

CAMKK1 (human), sequence (Q8N5S9 whole entry, looked up): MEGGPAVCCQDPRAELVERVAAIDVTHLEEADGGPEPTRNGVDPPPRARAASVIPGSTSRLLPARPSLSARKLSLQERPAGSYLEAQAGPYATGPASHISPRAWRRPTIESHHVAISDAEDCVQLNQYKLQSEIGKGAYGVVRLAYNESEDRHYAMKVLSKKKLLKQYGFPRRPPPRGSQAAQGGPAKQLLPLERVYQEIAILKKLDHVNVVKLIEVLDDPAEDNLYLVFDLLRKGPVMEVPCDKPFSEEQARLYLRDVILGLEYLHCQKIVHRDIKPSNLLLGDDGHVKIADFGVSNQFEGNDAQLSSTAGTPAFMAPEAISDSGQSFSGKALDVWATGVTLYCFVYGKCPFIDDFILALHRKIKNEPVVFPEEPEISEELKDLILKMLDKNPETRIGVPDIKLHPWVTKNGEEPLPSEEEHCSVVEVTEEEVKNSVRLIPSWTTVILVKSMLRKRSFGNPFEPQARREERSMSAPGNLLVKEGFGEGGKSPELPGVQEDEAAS
FGFR2 (human), sequence (P21802 whole entry, looked up): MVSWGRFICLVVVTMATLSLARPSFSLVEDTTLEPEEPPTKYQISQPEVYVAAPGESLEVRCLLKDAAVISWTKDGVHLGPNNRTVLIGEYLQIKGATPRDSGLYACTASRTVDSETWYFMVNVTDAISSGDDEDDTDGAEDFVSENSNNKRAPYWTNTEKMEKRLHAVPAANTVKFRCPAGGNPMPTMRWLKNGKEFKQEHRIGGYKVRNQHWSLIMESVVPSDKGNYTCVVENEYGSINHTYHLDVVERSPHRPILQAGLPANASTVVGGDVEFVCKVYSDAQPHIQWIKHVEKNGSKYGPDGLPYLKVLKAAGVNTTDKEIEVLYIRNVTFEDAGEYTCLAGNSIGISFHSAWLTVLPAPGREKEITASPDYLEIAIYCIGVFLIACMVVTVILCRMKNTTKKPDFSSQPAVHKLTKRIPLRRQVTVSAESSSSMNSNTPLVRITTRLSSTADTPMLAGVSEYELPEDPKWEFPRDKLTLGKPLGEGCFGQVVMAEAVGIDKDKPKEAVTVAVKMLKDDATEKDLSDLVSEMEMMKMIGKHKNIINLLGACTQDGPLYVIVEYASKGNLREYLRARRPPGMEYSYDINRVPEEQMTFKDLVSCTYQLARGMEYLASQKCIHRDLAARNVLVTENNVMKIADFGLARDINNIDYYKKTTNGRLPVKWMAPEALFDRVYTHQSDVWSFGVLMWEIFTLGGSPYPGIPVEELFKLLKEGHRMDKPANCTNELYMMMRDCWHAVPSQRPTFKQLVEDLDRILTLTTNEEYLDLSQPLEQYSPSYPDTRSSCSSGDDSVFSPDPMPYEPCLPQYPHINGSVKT
INSRR (human), sequence (P14616 whole entry, looked up): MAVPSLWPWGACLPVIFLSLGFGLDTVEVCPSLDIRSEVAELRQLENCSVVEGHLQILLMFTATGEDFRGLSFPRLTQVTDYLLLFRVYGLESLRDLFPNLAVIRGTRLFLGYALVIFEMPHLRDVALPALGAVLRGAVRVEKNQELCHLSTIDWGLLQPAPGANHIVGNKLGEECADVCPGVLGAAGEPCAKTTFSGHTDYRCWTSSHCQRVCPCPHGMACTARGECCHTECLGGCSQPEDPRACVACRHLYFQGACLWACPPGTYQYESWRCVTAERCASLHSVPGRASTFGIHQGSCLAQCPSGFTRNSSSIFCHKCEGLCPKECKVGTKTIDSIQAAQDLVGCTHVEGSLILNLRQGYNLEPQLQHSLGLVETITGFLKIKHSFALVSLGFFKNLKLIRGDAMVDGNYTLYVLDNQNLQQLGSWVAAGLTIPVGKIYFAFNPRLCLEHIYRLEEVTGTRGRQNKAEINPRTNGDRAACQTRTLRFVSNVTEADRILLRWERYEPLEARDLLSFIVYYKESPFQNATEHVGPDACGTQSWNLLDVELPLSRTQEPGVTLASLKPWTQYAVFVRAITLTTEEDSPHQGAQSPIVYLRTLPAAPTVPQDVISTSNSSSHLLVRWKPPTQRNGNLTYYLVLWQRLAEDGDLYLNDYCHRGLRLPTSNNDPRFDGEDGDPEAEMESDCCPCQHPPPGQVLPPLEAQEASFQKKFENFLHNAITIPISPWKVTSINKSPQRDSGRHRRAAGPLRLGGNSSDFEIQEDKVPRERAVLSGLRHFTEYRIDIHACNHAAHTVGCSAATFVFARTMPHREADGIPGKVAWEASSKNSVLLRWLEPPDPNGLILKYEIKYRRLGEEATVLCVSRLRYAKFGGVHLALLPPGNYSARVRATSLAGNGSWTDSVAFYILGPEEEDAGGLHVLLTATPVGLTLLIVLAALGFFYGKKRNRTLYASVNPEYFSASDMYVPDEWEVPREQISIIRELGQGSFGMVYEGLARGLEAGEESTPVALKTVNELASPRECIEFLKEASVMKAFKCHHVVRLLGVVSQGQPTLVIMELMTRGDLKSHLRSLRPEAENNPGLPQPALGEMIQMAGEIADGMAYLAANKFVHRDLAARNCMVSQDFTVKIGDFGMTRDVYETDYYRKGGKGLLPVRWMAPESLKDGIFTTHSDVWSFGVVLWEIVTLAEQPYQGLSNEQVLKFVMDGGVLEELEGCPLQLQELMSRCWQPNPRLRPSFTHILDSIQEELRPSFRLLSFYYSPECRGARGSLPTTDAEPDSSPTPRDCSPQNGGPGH
PTK6 (human), sequence (Q13882 whole entry, looked up): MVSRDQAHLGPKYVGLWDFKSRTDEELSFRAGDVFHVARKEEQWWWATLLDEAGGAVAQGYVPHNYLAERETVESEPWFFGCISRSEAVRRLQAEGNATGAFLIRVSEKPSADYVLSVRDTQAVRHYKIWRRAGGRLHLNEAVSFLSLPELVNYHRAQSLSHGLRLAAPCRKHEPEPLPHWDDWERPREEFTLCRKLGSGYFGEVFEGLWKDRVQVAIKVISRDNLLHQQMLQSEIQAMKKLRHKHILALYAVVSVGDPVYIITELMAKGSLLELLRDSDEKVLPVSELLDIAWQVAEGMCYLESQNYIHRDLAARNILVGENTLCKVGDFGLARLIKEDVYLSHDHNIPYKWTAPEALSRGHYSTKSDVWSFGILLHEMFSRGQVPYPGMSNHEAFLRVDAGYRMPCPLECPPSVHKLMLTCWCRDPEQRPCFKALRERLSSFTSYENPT
CDK1 CCNB1 (human), sequence (P06493 whole entry, looked up): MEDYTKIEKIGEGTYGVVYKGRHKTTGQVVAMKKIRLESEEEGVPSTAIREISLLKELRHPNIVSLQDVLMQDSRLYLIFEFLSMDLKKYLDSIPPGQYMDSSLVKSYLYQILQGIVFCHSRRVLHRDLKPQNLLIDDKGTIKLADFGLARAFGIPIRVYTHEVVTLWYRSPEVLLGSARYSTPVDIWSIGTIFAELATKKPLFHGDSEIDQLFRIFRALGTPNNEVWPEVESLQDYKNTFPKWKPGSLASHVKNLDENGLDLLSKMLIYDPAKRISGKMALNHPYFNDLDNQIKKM
CDK1 CCNB1 (human), sequence (P14635 whole entry, looked up): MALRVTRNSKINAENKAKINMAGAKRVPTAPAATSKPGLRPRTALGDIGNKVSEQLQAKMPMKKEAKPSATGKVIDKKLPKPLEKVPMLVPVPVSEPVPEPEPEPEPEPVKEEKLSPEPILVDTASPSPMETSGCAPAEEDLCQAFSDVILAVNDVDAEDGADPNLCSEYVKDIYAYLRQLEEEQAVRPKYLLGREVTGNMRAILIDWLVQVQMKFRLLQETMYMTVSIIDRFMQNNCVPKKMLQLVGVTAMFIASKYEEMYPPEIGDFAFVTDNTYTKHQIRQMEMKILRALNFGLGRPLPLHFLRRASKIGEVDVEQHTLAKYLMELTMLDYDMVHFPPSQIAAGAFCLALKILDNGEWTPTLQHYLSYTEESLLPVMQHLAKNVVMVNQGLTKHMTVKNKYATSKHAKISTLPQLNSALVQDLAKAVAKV
PAK1 (human), sequence (Q13153 whole entry, looked up): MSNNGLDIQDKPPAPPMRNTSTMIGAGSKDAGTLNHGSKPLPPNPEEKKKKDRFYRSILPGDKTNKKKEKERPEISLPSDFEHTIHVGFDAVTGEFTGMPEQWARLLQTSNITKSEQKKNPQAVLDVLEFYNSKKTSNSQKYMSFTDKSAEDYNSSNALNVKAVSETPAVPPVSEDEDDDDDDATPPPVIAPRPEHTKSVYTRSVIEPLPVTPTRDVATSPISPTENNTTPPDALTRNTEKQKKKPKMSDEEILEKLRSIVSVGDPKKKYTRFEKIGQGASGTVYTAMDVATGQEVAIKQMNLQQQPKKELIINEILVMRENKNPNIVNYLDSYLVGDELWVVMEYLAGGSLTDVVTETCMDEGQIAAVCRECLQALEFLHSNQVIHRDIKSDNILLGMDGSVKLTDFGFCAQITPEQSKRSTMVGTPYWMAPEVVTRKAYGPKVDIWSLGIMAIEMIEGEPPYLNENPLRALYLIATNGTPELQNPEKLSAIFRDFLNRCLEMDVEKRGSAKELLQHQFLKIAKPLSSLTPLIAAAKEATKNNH

Work on `O=C1Nc2ccccc2/C1=C1/Nc2ccccc2/C1=N\OCCC(O)CO` (stereo unspecified) yielded a residual activity (EPHA8 (human)) of 91.9%, a residual activity (MAPK1 (human)) of 89.8% and a residual activity (HIPK1 (human)) of 96%. The residual activity (INSRR (human)) was 2.77%, the residual activity (NLK (human)) was 101% and the residual activity (RPS6KA1 KD1 KD2 (human)) was 8.85%. For the same molecule, the residual activity (NEK9 (human)) was 73.6%, the residual activity (EPHA3 (human)) was 69% and the residual activity (DYRK3 (human)) was 105%. The residual activity (TAOK3 (human)) was 55.4%, the residual activity (RET (human)) was 1.22% and the residual activity (ULK2 (human)) was 102%. It also gave a residual activity (MKNK2 (human)) of 72.4%, a residual activity (EPHA2 (human)) of 65.3% and a residual activity (INSR (human)) of 44.9%. For the same molecule, the residual activity (PAK2 (human)) was 82.1%, the residual activity (PTK6 (human)) was 73.3% and the residual activity (CDK1 CCNB1 (human)) was 33.4%. The residual activity (MYLK (human)) was 32.3%, the residual activity (FGFR2 (human)) was 76% and the residual activity (CAMK4 (human)) was 93.6%. For the same molecule, the residual activity (TTK (human)) was 46.1%, the residual activity (MAPKAPK2 (human)) was 98.4% and the residual activity (RAF1 (human)) was 100%. It also gave a residual activity (NUAK2 (human)) of 55.1%, a residual activity (CSNK2A1 (human)) of 57.6% and a residual activity (MARK2 (human)) of 57.4%. The residual activity (ADRBK2 (human)) was 100%, the residual activity (PAK4 (human)) was 84.5% and the residual activity (PAK1 (human)) was 71.3%. It also gave a residual activity (SRPK2 (human)) of 86.5%, a residual activity (NEK2 (human)) of 114% and a residual activity (GRK4 (human)) of 74.7%. For the same molecule, the residual activity (SGK3 (human)) was 100%, the residual activity (PIM3 (human)) was 58.5% and the residual activity (ROCK1 (human)) was 101%. The residual activity (STK17A (human)) was 22.5%, the residual activity (CAMKK1 (human)) was 26.2% and the residual activity (PRKCG (human)) was 92%. The residual activity (MERTK (human)) was 49.4%, the residual activity (CAMK2A (human)) was 12.2% and the residual activity (MYLK2 (human)) was 27.3%.
For `Oc1ccc(Nc2nc(-c3ccc(Cl)cc3)cs2)cc1`, the residual activity (EPHA8 (human)) was 93.4%, the residual activity (MAPK1 (human)) was 106% and the residual activity (HIPK1 (human)) was 100%. It also gave a residual activity (INSRR (human)) of 98.8%, a residual activity (NLK (human)) of 101% and a residual activity (RPS6KA1 KD1 KD2 (human)) of 97.7%. For the same molecule, the residual activity (NEK9 (human)) was 90.6%, the residual activity (EPHA3 (human)) was 110% and the residual activity (DYRK3 (human)) was 101%. For the same molecule, the residual activity (TAOK3 (human)) was 101%, the residual activity (RET (human)) was 99% and the residual activity (ULK2 (human)) was 101%. It also gave a residual activity (MKNK2 (human)) of 84.5%, a residual activity (EPHA2 (human)) of 105% and a residual activity (INSR (human)) of 88.9%. The residual activity (PAK2 (human)) was 87%, the residual activity (PTK6 (human)) was 87.4% and the residual activity (CDK1 CCNB1 (human)) was 109%. For the same molecule, the residual activity (MYLK (human)) was 104%, the residual activity (FGFR2 (human)) was 104% and the residual activity (CAMK4 (human)) was 99.7%. For the same molecule, the residual activity (TTK (human)) was 87.6%, the residual activity (MAPKAPK2 (human)) was 100% and the residual activity (RAF1 (human)) was 95.7%. For the same molecule, the residual activity (NUAK2 (human)) was 137%, the residual activity (CSNK2A1 (human)) was 101% and the residual activity (MARK2 (human)) was 102%. For the same molecule, the residual activity (ADRBK2 (human)) was 97.6%, the residual activity (PAK4 (human)) was 102% and the residual activity (PAK1 (human)) was 99.4%. The residual activity (SRPK2 (human)) was 104%, the residual activity (NEK2 (human)) was 110% and the residual activity (GRK4 (human)) was 90.5%. It also gave a residual activity (SGK3 (human)) of 98%, a residual activity (PIM3 (human)) of 114% and a residual activity (ROCK1 (human)) of 103%. It also gave a residual activity (STK17A (human)) of 98.7%, a residual activity (CAMKK1 (human)) of 124% and a residual activity (PRKCG (human)) of 87.3%. The residual activity (MERTK (human)) was 97.1%, the residual activity (CAMK2A (human)) was 106% and the residual activity (MYLK2 (human)) was 97.1%.
With `O=C(Nc1cccc(Nc2cc(Nc3cccc(C(F)(F)F)c3)ncn2)c1)C1CC1` the residual activity (EPHA8 (human)) was 103%, the residual activity (MAPK1 (human)) was 101% and the residual activity (HIPK1 (human)) was 99.7%. For the same molecule, the residual activity (INSRR (human)) was 101%, the residual activity (NLK (human)) was 95.9% and the residual activity (RPS6KA1 KD1 KD2 (human)) was 95.1%. It also gave a residual activity (NEK9 (human)) of 101%, a residual activity (EPHA3 (human)) of 98.4% and a residual activity (DYRK3 (human)) of 101%. For the same molecule, the residual activity (TAOK3 (human)) was 98.7%, the residual activity (RET (human)) was 109% and the residual activity (ULK2 (human)) was 102%. The residual activity (MKNK2 (human)) was 83.8%, the residual activity (EPHA2 (human)) was 104% and the residual activity (INSR (human)) was 103%. The residual activity (PAK2 (human)) was 103%, the residual activity (PTK6 (human)) was 98.4% and the residual activity (CDK1 CCNB1 (human)) was 96.4%. The residual activity (MYLK (human)) was 99%, the residual activity (FGFR2 (human)) was 105% and the residual activity (CAMK4 (human)) was 98.5%. It also gave a residual activity (TTK (human)) of 98.7%, a residual activity (MAPKAPK2 (human)) of 104% and a residual activity (RAF1 (human)) of 98.4%. For the same molecule, the residual activity (NUAK2 (human)) was 103%, the residual activity (CSNK2A1 (human)) was 92.6% and the residual activity (MARK2 (human)) was 101%. The residual activity (ADRBK2 (human)) was 103%, the residual activity (PAK4 (human)) was 103% and the residual activity (PAK1 (human)) was 96.6%. The residual activity (SRPK2 (human)) was 92%, the residual activity (NEK2 (human)) was 99.5% and the residual activity (GRK4 (human)) was 104%. The residual activity (SGK3 (human)) was 106%, the residual activity (PIM3 (human)) was 133% and the residual activity (ROCK1 (human)) was 98.7%. For the same molecule, the residual activity (STK17A (human)) was 99.2%, the residual activity (CAMKK1 (human)) was 116% and the residual activity (PRKCG (human)) was 102%. For the same molecule, the residual activity (MERTK (human)) was 97.3%, the residual activity (CAMK2A (human)) was 104% and the residual activity (MYLK2 (human)) was 98.9%.
